From a melting point compilation (Tetko et al.; mined from patent text by program, amines drawn as free bases though some values may be those of a salt)

Compound | melting point [°C]
CCOC(=O)c1cnc(-c2ccc(Cl)cc2)s1 | 144 to 145
CC(=O)N[C@@H](C)COc1cc2oc(-c3ccc(OC[C@H]4CC4(F)F)c(F)c3)nc2cn1 | 181
O=C(O)c1cnc2cc(O)ccc2c1 | > 260
N#Cc1cc([N+](=O)[O-])ccc1Oc1ccc(C(=O)c2ccccc2)cc1 | 180
COCOc1ccccc1-c1nc(N)c(C#N)c(-c2cccc([N+](=O)[O-])c2)c1C | 154 to 155
CC(=O)Oc1ccccc1N1CCN(CCCNC(=O)c2cccc3c(=O)c(C)c(-c4ccccc4)oc23)CC1 | 120 to 123
Cc1cc(=O)oc2cc(NCc3ccccc3)ccc12 | 174 to 176
Cc1cc(SCc2cccc3nn(-c4ccc(C(F)(F)F)cc4)cc23)ccc1OCC(=O)O | 105 to 108
CC1(C)c2ccccc2-c2ccc(C3c4ccc(-c5ccc(-c6ccc(C=C(C#N)C(=O)O)s6)s5)c5c4C(CCC5)N3c3ccccc3)cc21 (centres undefined) | 251
O=C(Nc1ccc2c3c(oc2c1)CCC(O)C3O)c1c(Cl)cccc1Cl (centres undefined) | 206 to 209
COc1cc(Nc2nccc(-c3ccc(NCCCN4CCN(C)CC4)nc3)n2)cc(OC)c1OC | 183 to 184
c1ccc(COc2cc3cc(-c4ccccc4)[nH]c3cc2OCc2ccccc2)cc1 | 140 to 141
O=C(CNC(=O)OCc1ccccc1)OCc1ccccc1 | 72
CC(=O)Nc1ccc(S(=O)(=O)N[C@H]2COCOC[C@H]2OC(C)=O)cc1 (relative stereo) | 184 to 186
CC1N=C(c2ccccc2F)c2cc(C(C)N)ccc2N(C)C1=O (centres undefined) | 48 to 50
COc1ccc(S/C(=C/C(=O)NO)CCCCc2ccccc2)cc1OC | 148 to 150
NC(=O)C[C@H](NC(=O)CCc1ccc(OCc2ccccc2)cc1OCc1ccccc1)C(=O)N1CCN(c2ccccc2)CC1 | 96 to 98
CS(=O)(=O)c1ccc(-c2nc(-c3cc4ccccc4o3)[nH]c2-c2ccc(F)cc2)cc1 | 235 to 237
CCS(=O)(=O)Nc1cc(-c2ncnc(Cl)c2Cl)c(F)cc1C#N | 149 to 150
O=C(Cc1cc(F)cc(F)c1)Nc1cccc2nc(N[C@@H]3CCc4ccccc43)ccc12 | 221
Cc1ccc2nc(-c3ccccc3Br)ncc2c1 | 70 to 71
O=S1(=O)N=CN(C2CC2)c2cc(I)ccc21 | 304 to 307
O=S1(=O)c2sccc2C(O)CN1Cc1ccncc1 (centres undefined) | 183 to 185
CC(=O)C(Cl)=NNc1cccc(C)c1 | 144 to 146
O=C1Nc2ccccc2N(C(=O)CCCl)c2ccccc21 | 241 to 242

Compound | melting point [°C]
NC(=O)c1nnn(Cc2ccc(Cl)c(C(Cl)=C(Cl)Cl)c2)c1N | 174 to 175
Cc1nn2c(-c3cc(Cl)ccc3Cl)ccnc2c1C(N)=O | 234 to 236
CC1=C(C(=O)OC(C)C)C(c2cccc([N+](=O)[O-])c2)N(CCCc2ccccc2)C(=O)N1 (centres undefined) | 150 to 152
CC(=O)Oc1cc2c(cc1C(C)(C)CC(C)(C)C)OC(C)(COc1ccc([N+](=O)[O-])cc1)CC2=O (centres undefined) | 166 to 167
CCOC(=O)c1ncc2[nH]c3cccc(OC4CCC4)c3c2c1COC | 196 to 197
O=C(O)CCC(=O)c1ccc(-c2ccccc2F)cc1 | 148 to 153
CC(=O)Nc1cccc(C#CC=Cc2cccc(NC(C)=O)c2)c1 | 276 to 278
CCCCc1c(O)c2nccnc2n(-c2ccccc2)c1=O | 183 to 185
COc1cc(N)c(Cl)cc1C(=O)NCCNCc1ccc(CN(C)C)o1 | 91 to 93
O=C1OC2(CC(c3cccc(-c4ccccc4)c3)=NO2)c2ccccc21 (centres undefined) | 152 to 159
CC(=O)c1ccc(N2CCN(CCC3CN(C)C(=O)O3)CC2)cc1 (centres undefined) | 142 to 145
[N-]=[N+]=NCC1Cc2c(ccc3c2CCC(=O)N3)O1 (centres undefined) | 157 to 158
CC(C)(Cn1cnc2c(N)nc3c(c21)CCCC3)OCCS(C)(=O)=O | 219 to 223
COc1ccc2c([N+](=O)[O-])c(-c3ccc(OCc4ccccc4)cc3)[nH]c(=O)c2c1 | 252 to 254
Cc1ccn2c(CN(C)C)c(-c3ccc4sc(=O)n(C)c4c3)nc2c1 | 167 to 168
CSc1ncc(S(N)(=O)=O)c(Nc2cccc(C)c2)n1 | 184
CCOc1ccc2[nH]c(=O)n(C3CCOCC3)c2c1 | 155
O=C(N=CN1CCCCC1)C(O)(C(=O)N=CN1CCCCC1)c1ccc(Cl)c(Cl)c1 (centres undefined) | 195
CN(C)c1ccc(Cn2cnc3c(-c4ccco4)ncnc32)cc1 | 158 to 160
COC(=O)Nc1ccc(C2=NNC(=O)CC2C)cc1 (centres undefined) | 228 to 229
CCOC(=O)[C@@H](N)Cc1ccc([N+](=O)[O-])cc1I | 33 to 34
CCCC(C)S(=O)(=O)Nc1ccc(C(=O)CN2CCN(c3ccncc3)CC2)cc1 (centres undefined) | 101 to 103
COc1ccccc1NC(=O)Nc1ccc(CC(=O)OC(C)(C)C)cc1OC | 132 to 134
CCOC(=O)CC(C)c1ccc(C2COc3c(C)c(C)c(NC(=O)CC(C)(C)C)c(C)c32)cc1 (centres undefined) | 100 to 101
N#Cc1ccc(N(Cc2ccc(OS(N)(=O)=O)c(Cl)c2)n2cnnc2)cc1-c1cc2ccccc2o1 | 214 to 215

Compound | melting point [°C]
Cc1cc(C#N)sc1Br | 40 to 42
CCN(CC)CC1CCCCN1CCNC(=O)N1c2ccc(Cl)cc2C(=O)Nc2cccnc21 (centres undefined) | 138 to 140
CCCOc1ccccc1-c1nc(NCC)cc(=O)[nH]1 | 187 to 188
O=C(Nc1cc2ncc(CN3CCCC3)cc2cc1F)c1ccc(-c2ccc(F)cc2)cc1F | 200 to 202
NC(=O)Cc1ccc([N+](=O)[O-])c(C(=O)c2ccc(Cl)cc2)c1 | 212
Cc1ccc(C(=O)Nc2ccc(-n3nc(C(F)(F)F)cc3C(F)(F)F)cc2)c(Cl)n1 | 155 to 156
CCOC(=O)c1cn(C)c2cnc3cc(N4CCCC(C)(C)C4)c(F)cc3c2c1=O | 198 to 200
CCCCC(COc1ccc(-c2cccc(CC#N)c2)cc1)N(O)C=O (centres undefined) | 99 to 101
CC(C)(C#N)c1ccc(C(=O)C2CC2)cc1 | 80 to 82
c1ccc2c(c1)NC(C1CCCCC1)c1cccc3c1N2CC3 (centres undefined) | 136 to 138
CCCCCCCCCCCCC(C)CNc1cc(C)c([N+](=O)[O-])cc1C(N)=O (centres undefined) | 117 to 119
O=C(NC/C=C\COc1cc(CN2CCCCC2)ccn1)NC1CCC1 | 130 to 132
COC1CCC(NC(=O)C2CC3c4cccc5c4c(cn5C(C)C)CC3N(C)C2)CC1 (centres undefined) | > 230
CCCn1c(=O)c2c(C(=O)OCCN(C)C)ncn2c2ccccc21 | 115 to 118
Cc1cccc(C)c1N(CC(C)N)S(C)(=O)=O (centres undefined) | 106 to 109
COC(=O)[C@@H]1C[C@H](N)C(=O)[C@H]2[C@@]1(C)CC[C@H]1C(=O)O[C@H](c3ccoc3)C[C@]21C | 237 to 240
Cc1cccc2c1C1=C(CC2)NC(=O)CC1 | 168 to 169
C/C(=C\c1ccc(C(=O)O)cc1)c1cc2c(s1)C(C)(C)CCC2(C)C | 236 to 238
COC(=O)c1ccc(NN=CC(F)(F)F)cc1S(=O)(=O)NC(=O)Nc1nc(OC)cc(OC)n1 | 201 to 202
CC(=S)NC[C@H]1CN(c2ccc(N3CCC(C#N)(C(C#N)C#N)CC3)c(F)c2)C(=O)O1 | 178 to 180
CNS(=O)(=O)c1cc(C(=O)O)cc(N2CCCC2)c1Oc1ccccc1 | 245 to 248
CCOC(=O)C(NC(=O)N1CCc2cc(S(=O)(=O)N3CCN(c4cccc(Cl)c4)CC3)ccc21)C(C)C (centres undefined) | 143 to 144
Cc1cccc(C(=O)c2cccc(N)c2)c1 | 110
COc1cc(/C=C/c2cc(/C=C/c3c[nH]c4ccccc34)n[nH]2)ccc1OCc1ccccn1 | 120 to 130
CSc1nc(N)c2nsnc2n1 | 197 to 199

Compound | melting point [°C]
O=C(O)C1Cc2c(ccc3c(=O)c4c(Cl)cccc4oc23)O1 (centres undefined) | 283 to 286
CC(C)(C)CC(=O)c1ccc(O)c(Cl)c1Cl | 156 to 158
COc1ccc(N2C(=O)O[C@H](CO)[C@@H]2C)cc1 | 99 to 101
COc1cc(OC)c(C(C)=O)c(O)c1OC | 114 to 116
CCCc1ccc2nc(Cl)c(S(N)(=O)=O)n2n1 | 174 to 175
Cn1ncnc1COc1nc2c(cc1-c1cccc(F)c1)nnn2-c1ccccc1F | 143 to 145
COCOc1cc(/C=C/C(=O)/C=C/c2cc(OCOC)cc(OCOC)c2)cc(OCOC)c1 | 90 to 92
Nc1nc(NCc2ccccc2)c2ncn(C3CC(F)C(CO)O3)c2n1 (centres undefined) | 90 to 94
CC(C)(C#N)C1(c2ccc(Cl)cc2)CCC1 | 73 to 75
COc1ccc2c(c1)CCC1C2=CCC2(C)C1CCC21OCCO1 (centres undefined) | 146 to 149
O=C(Nc1ccc(-c2ncc(-c3ccc(NC(=O)C4CCCCCC4)cc3)[nH]2)cc1)c1ccc([N+](=O)[O-])cc1 | 236 to 238
COc1ccc(-c2cc(=O)c3c(OCC(O)CO)cc(OCC(O)CO)cc3o2)cc1O (centres undefined) | 204
O=C(Nc1cccc2c(Cn3ccnc3)ccnc12)c1c(Cl)cccc1Cl | > 250
OCc1c(C(F)(F)F)[nH]c2ccccc12 | 106
CC(C)(CO)CNS(=O)(=O)c1ccc(NC=C2C(=O)Nc3ccc4ncsc4c32)cc1 | > 250
CCCCCCCCc1cc2c(s1)-n1c(C)nnc1CN=C2c1ccccc1Cl | 80 to 82
COc1cccc(CC(=S)SCC(=O)O)c1 | 93 to 95
CCNC(=O)[C@@H]1C[C@H](SCc2ccc(OC)cc2)CN1C(=O)OC(C)(C)C | 92 to 94
CCN(CC)c1nc2cc(-c3ccccc3C#N)ccc2[nH]1 | 138 to 142
CCCCCCCCCCCCc1ccc2c(Cl)cccc2c1O | 68 to 70
CCCc1nn(C)c2c(=O)n(CCCOc3ccc(SC(C)(C)C(=O)OCC)cc3)c(CC)nc12 | 52 to 54
CCOc1ccc2cccnc2c1N | 94 to 95
CCOC(=O)C1CCc2c([nH]c3ccc(N(C)C)cc23)C1 (centres undefined) | 100 to 101
CCOC(=O)c1cnc2nc(C=CC(=O)O)c(OCC)cc2c1O | > 280
